Data taken from patent US20210298297A1, “MOSQUITO ATTRACTANTS” (Wageningen Universiteit, priority 2018, published 2021).

Assays:
[1] = test system: Anopheles coluzzii; test: Dual-port olfactometer preference test of IAC and IAC blends; format: in vivo; settings: for behavioural response on supplementing parasite-free odour with the IAC alone: individual IAC, at least two concentrations, with parasite-free odour (socks) vs parasite-free odour alone
Description: Six IAC (heptanal, octanal, nonanal, (E)-2-octenal, (E)-2-decenal and 2-octanone) were tested in a background of odour from the worn nylon socks of twelve parasite-free children (18S qPCR confirmed). Each sock pair was cut into twelve strips after removing the foot part, then 12 bundles were made, each containing a strip from each individual. Bundles were stored at −20° C. until, and between, experiments. IAC were positioned downwind and separated from sock bundles by a metal grid, ensuring no contact. Parasite-free odour (bundles) was tested with or without individual IAC (in 10 μL hexane on filter paper) and against the same but with hexane alone.
Next, we verified whether the IAC could improve a mosquito lure for monitoring or mass trapping of Anopheles. Heptanal, the most promising candidate from the above experiment, was tested as well as two blends: Plas 5 contained the IAC that were associated with parasitological positivity (nonanal, heptanal, octanal, (E)-2-decenal and (E)-2-octenal), and Plas 6 additionally contained the gametocyte-associated 2-octanone (FIG. 3). Each of Plas 5 and Plas 6 were made up in hexane by weighing the appropriate amounts of constituent compounds into a volumetric flask. […] Plas 5 and Plas 6 were tested with the synthetic lure MB5^36 at four concentrations, each decreasing by a factor of 10 from the 100% concentration by serial dilution.
MB5 was presented on nylon strips as described in Menger et al. (2014)^36 (except the five compounds were incubated onto a single 5×26.5 cm nylon strip instead of five narrower strips). 10 μl of the Plas5 or Plas6 blend at 100% or serial dilution was pipetted onto a filter paper and added in the same olfactometer trap.
A triple chamber dual-port olfactometer^59 was used to test the preference of 30 five- to eight-day-old female, non blood-fed Anopheles coluzzii (Suokoko strain^21, rearing procedures as published previously^21) for parasite free odour or MB5, supplemented with IAC or IAC blends, against background odour alone (parasite-free odour or MB5). Mosquitoes were maintained in a release cage prior to testing (for 16-22 hours). Experiments took place during the last four hours of the scotophase under near-dark conditions (<1 lux). Mosquitoes were allowed to fly for 15 minutes, then those that had entered the traps with test/control odours were counted. Each IAC/concentration combination was tested eight-nine times on different days, and each Plas concentration 10-11 times on different days, rotating treatments between the left and right port of the olfactometer. Climatic data (R.H., temperature and air pressure) were recorded in the flight chambers and in the surrounding room.
Generalized linear models (GLMs) were used to test the effect of odours (individual IAC/heptanal/Plas blends) on relative attractiveness (the proportion of mosquitoes selecting the test odour). GLMs were run as described above (statistical analysis, attractiveness of ‘infected odour’ (socks) by cage assays), testing parameters associated with the set-up as additional factors or covariates in the model, and retaining when significant (P<0.05, F-test). Sets of compounds were run in separate models. SPSS® was used for the analyses.

[2] = test system: Anopheles coluzzii antennae; test: Gas chromatography-electroantennography (GC-EAG) of pooled odour samples; settings: analytes in pooled foot odour extracts; >3 responses of 6/7 repetitions = EAG-active
Description: Porapak filters were eluted using re-distilled diethyl ether (750 μL), and, to approximate an “average” odour per category, extracts were pooled according to the individual's parasitological status: (1) Plasmodium infection, no gametocytes (2) high-density P. falciparum gametocytes (3) parasite-free individuals, (4) Plasmodium infection, sub-microscopic P. falciparum gametocytes. Aliquots (400 μL) of extracts were mixed, then concentrated (to 60 μL) under a stream of nitrogen (charcoal-filtered). Glassware, charcoal filters and PTFE tubing were cleaned as before.
GC-EAG was conducted during the scotophase, using four- to eight- day-old, unfed female Anopheles coluzzii (N′gousso strain^56). Adults were maintained at 70% RH, with a 12 h light/dark cycle (scotophase 09:00-21:00) and access to 50% glucose solution. The order of testing blends was determined by a 5×5 Latin square (including control blend). The mosquito head was dissected, and the palps, proboscis, and half of the terminal (13th) antennal flagellomere cut off. The indifferent electrode was inserted into the back of the head and the antennal tips guided into the recording electrode to complete the circuit (FIG. 3). Electrodes were hand-pulled glass tips inserted over silver wire (diameter 0.37 mm; Harvard Apparatus, Edenbridge, UK) and filled with Ringers' solution^15. […] The eluate was split to the FID detector and EAG interface at a ratio of 1:1. At the EAG interface, the eluate passed from the heated splitter column to a stream of charcoal filtered, humidified air (flow rate 400 mL/min). This airflow was directed over the antenna at a distance of 5 mm. The signal was amplified ×10,000 by the Intelligent Data Acquisition Controller-4, and signals were analysed using EAD 2000 software (both Syntech®, Hilversum, The Netherlands). Responses were signified by a depolarisation of sufficient amplitude. Peaks that elicited responses in more than 3, of the 6/7 total repetitions, were considered to be EAG-active.

| SMILES | behavioural response on supplementing parasite-free odour with the IAC alone [1] | proportion of mosquitoes selecting the test odour (GLM, 95 CI) ([1]; 10 μL heptanal at 10^−8 g/mL added to parasite-free odour (socks) vs parasite-free odour alone) | effect on attractiveness of parasite-free odour ([1]; heptanal at 10^−7 g/mL added to parasite-free odour vs parasite-free odour alone) | attractiveness of MB5 supplemented with the compound relative to control MB5 ([1]; three concentrations, data not shown) | antennal (EAG) response [2] |
| --- | --- | --- | --- | --- | --- |
| CCCCCCC(C)=O [2-octanone] | did not induce altered behavioural responses |  |  |  |  |
| CCCCCCC/C=C/C=O [(E)-2-decenal] | did not induce altered behavioural responses |  |  |  |  |
| CCCCC/C=C/C=O [(E)-2-octenal] | did not induce altered behavioural responses |  |  |  |  |
| CCCCCCC=O [heptanal] |  | 0.60-0.84 | no effect | equally attractive | elicit antennal response |
| CCCCCCCCC=O [nonanal] | did not induce altered behavioural responses |  |  |  | elicit antennal response |
| CCCCCCCC=O [octanal] | did not induce altered behavioural responses |  |  |  | elicit antennal response |
